Earlier results, collected in patent US6555519B2, “O-glucosylated benzamide SGLT2 inhibitors and method” (Bristol-Myers Squibb Company, priority 2000, dated 2003).

Columns and labels:
human SGLT1 = molecular target: T1, human SGLT1 (Homo sapiens, UniProt P13866); conditions: SGLT1 transporter; read-out: Km values for uptake
T1 sequence (P13866 1-664): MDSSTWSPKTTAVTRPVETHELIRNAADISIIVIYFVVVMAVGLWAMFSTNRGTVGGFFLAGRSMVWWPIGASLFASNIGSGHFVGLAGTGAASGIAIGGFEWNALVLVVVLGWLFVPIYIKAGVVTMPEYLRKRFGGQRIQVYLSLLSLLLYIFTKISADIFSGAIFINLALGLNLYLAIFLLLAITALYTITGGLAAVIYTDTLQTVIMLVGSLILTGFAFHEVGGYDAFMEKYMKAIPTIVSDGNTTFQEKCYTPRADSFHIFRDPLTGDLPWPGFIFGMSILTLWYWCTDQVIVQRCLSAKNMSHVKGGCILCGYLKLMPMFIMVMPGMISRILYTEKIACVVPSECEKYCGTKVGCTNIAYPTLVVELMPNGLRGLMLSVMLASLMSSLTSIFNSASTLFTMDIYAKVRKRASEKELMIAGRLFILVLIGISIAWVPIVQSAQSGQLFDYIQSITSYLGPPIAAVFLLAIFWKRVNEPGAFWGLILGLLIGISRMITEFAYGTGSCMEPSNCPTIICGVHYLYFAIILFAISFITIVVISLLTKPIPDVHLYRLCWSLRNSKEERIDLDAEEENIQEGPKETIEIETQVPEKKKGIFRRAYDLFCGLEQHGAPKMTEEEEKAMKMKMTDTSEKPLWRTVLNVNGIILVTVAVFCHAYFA

human SGLT2 = molecular target: T2, human SGLT2 (Homo sapiens, UniProt P31639); conditions: SGLT2 transporter; read-out: Km values for uptake
T2 sequence (P31639 1-672): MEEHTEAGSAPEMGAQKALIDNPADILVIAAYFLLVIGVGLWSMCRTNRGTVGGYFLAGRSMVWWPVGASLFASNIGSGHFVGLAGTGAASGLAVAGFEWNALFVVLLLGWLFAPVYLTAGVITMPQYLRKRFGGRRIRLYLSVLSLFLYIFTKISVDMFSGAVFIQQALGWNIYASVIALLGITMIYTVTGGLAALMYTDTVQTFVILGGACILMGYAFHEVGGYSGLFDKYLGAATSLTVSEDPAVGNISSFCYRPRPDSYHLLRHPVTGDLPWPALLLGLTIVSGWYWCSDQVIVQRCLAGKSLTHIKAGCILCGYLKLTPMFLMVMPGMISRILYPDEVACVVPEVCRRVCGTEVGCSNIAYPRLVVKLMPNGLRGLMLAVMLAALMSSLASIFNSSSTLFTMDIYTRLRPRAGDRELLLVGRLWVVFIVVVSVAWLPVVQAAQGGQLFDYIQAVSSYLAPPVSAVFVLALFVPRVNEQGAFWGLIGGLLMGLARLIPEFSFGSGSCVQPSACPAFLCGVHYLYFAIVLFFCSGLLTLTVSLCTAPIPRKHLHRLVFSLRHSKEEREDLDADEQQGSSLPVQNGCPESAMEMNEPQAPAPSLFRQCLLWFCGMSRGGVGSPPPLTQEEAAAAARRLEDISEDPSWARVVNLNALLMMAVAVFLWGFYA

In the case of CO[C@H]1O[C@H](CO)[C@@H](O)[C@H](O)[C@H]1O [AMG, α-methyl-D-glucopyranoside], the Km (human SGLT1) is given as 400 µM and the Km (human SGLT2) is given as 1600 µM.
